Here are results for 33 molecules from ChEMBL document CHEMBL1157539, “Thousands of chemical starting points for antimalarial lead identification” (Nature, 2010).

For the assay, the system named is Plasmodium falciparum. Kind of assay: GSK_TCMDC: Inhibition of Plasmodium falciparum 3D7 in whole erythrocytes, using parasite LDH activity as an index of growth. The format is functional, organism-based. The note with it: Plasmodium falciparum, 3D7.
Take `CCN(CC)Cc1ccc2c(=O)cc(CCc3cccc(F)c3F)n(CC(=O)N(Cc3ccc(-c4ccc(C(F)(F)F)cc4)cc3)C(C)C)c2c1`: the XC50 amounted to 782 nM. The same measure for `COc1cc2nc(N3CCN(C(=O)c4ccco4)CC3)nc(NCc3ccccc3)c2cc1OC`: 167 nM; for `COc1ccc(C2C(C(=O)Nc3cc(C)ccc3OC)c3ccccc3C(=O)N2C)cc1` (stereo not drawn): 982 nM; for `N#Cc1ccc(C=Cc2nccc3c2[nH]c2ccccc23)cc1`: 643 nM. Molecule `CCCN1CCN(c2ccc(NS(=O)(=O)c3ccc(C(=O)Nc4ccc(Cl)cc4)cc3)cc2)CC1` came in with an XC50 of 1110 nM.

Molecule `COc1c(F)ccc2ncc(Cl)c(CCN3CCC(NCc4ccc5c(n4)NC(=O)CS5)CC3)c12` came in with an XC50 of 544 nM. As for `COc1cc(N(Cc2ccc(F)cc2)C(=O)c2ccc(-c3ccccc3)cc2)ccc1OCCN1CCCC1`, the XC50 worked out at 830 nM. With `Cc1nc2c(c(O)c1Cl)-c1ccc(Oc3cccc(C(F)(F)F)c3)cc1C2=O`, the XC50 was 37.9 nM. Next, `CC(C)(CNCc1ccc(F)c(F)c1)c1nc(-c2ccnc(N)n2)c(-c2ccc(Cl)c(O)c2)[nH]1`: 740 nM. Regarding `Cc1cc(CNC(=O)[C@H](CC2CCCCC2)Nc2ccc(C#N)c3ccccc23)c(C(F)(F)F)o1`, the XC50 is 1180 nM. In turn, `SC(=Nc1ccc2c(c1)OCCO2)NN=Cc1ccccn1` showed an XC50 of 1050 nM.

`CC(C)(C)c1cc(C(=O)Nc2ccc(C(=N)N)cc2)c(O)c(C(C)(C)C)c1` displayed an XC50 of 763 nM. The same measure for `CNC(=O)c1cnc(Nc2ccc(OCC(O)CN(C)C)cc2)nc1Nc1cccc([N+](=O)[O-])c1` (stereo not drawn): 617 nM.

The molecule `CC(C)CC(=O)N1CCNC[C@@H]1C(=O)NCc1ccc(Cl)c(Cl)c1` returned an XC50 of 950 nM. Next, `CCN(CC)CCOc1ccc(C(O)(C#CC(O)(c2ccc(C)cc2)c2ccc(OCCN(CC)CC)cc2)c2ccc(C)cc2)cc1` (stereo not drawn): 903 nM.

For the molecule `COc1ccc2c(NN=Cc3cccnc3)ccnc2c1`, the XC50 was 684 nM. For the molecule `NC1CCN(Cc2cccc(-c3csc(-c4nc5ccccc5[nH]4)c3)c2)C1` (stereo not drawn), the XC50 came out at 892 nM. Turning to `O=C(/C=C/c1ccc(Cl)cc1)NCCCCCN1CCCC(C(=O)Nc2ccc(F)c(Cl)c2)C1` (stereo not drawn), the XC50 was 1120 nM. Take `N#Cc1cccc(C(=O)Nc2cccc(-c3ccc(CN4CCCC4)cc3)c2)c1`: the XC50 was found to be 695 nM. In turn, `C[C@H]1CN(Cc2cccc(-c3cc(CNC(=O)c4cccc(C(=O)c5ccc(Cl)c(Cl)c5)c4)ccc3F)c2)CCN1` displayed an XC50 of 1140 nM. `CCC[C@@H]([C@@H](Cc1ccc(C)s1)C(=O)N[C@@H](CNC(C)=O)C(=O)Nc1nccs1)N(O)C=O` gave an XC50 of 176 nM. The same measure for `CN(c1cc(NC(=O)c2ccc(F)cc2)ccn1)C1CCN(Cc2cccc(O)c2)CC1`: 922 nM; for `COc1ccc(OC)c2c1CCN(CCN1CCC(C(=O)Nc3ccc(C(=O)Nc4ccc(Cl)cc4)cc3)CC1)C2`: 582 nM. The same measure for `N=C(NCCc1c[nH]c2ccccc12)NCc1ccccc1Cl`: 112 nM; for `CC1(C)N=C(N)N=C(N)N1c1ccc(Cl)c(Cl)c1`: 3.2 nM.

In the case of `FC(F)(F)Oc1ccc(-c2cnc3ccc(NCc4ccncc4)nn23)cc1`, the XC50 is 866 nM.

Regarding `CN1CCC=C(C(=O)NCC(C)(C)c2nc(-c3ccc(Cl)c(O)c3)c(-c3ccncc3)[nH]2)C1`, the XC50 worked out at 1000 nM.

In the case of `O=C(c1cc2nc3c(c(C(F)(F)F)n2n1)CCc1ccccc1-3)N1CCN2CCCC2C1` (stereo not drawn), the XC50 stood at 947 nM. Next, `COc1cc2nc(N(C)CC3COc4ccccc4O3)nc(N)c2cc1OC` (stereo not drawn): 1550 nM; `COc1cc(-c2ccc3c(-c4ccc(C(=O)N5CCN(C)CC5)cc4)n[nH]c3n2)cc(OC)c1OC`: 1330 nM. Molecule `COCCN1CCN(Cc2ccc(-c3ccc(-c4nc5cc(F)ccc5[nH]4)cc3)cc2)CC1` registered an XC50 of 717 nM. Next, `O=C(CCc1c[nH]cn1)Nc1cccc(-c2cccc(-c3nc4cc(C(F)(F)F)ccc4[nH]3)c2)c1`: 132 nM. The same measure for `COc1ccc2nccc([C@@H](O)CN3CCC(NC(=O)/C=C/c4ccnc5ccccc45)CC3)c2c1`: 939 nM.
